Read-outs that look alike come from different tables or passages of the source.

For assay [1], the target named is SARS-CoV-2 nsp7/8/12 complex (Severe acute respiratory syndrome coronavirus 2, UniProt P0DTD1). Nature of the assay: SARS-CoV-2 nsp7/8/12 in vitro activity assay. In kind it is biochemical.
The target in assay [2] is A/WSN/33 (H1N1) influenza virus FluPol (Influenza A virus, UniProt P03430). Briefly: biochemical. In kind it is biochemical, influenza A/WSN/33 (H1N1) virus.
The next assay concerns the target FluPol (Influenza A virus, UniProt P03430). Type of assay: biochemical, influenza A/WSN/33 (H1N1) virus.
The subject of the next assay is influenza virus. The conditions noted are these: read-out: EC90 influenza virus growth in cell culture; cited from earlier work.

A/WSN/33 (H1N1) influenza virus FluPol, sequence (P03430 whole entry, looked up): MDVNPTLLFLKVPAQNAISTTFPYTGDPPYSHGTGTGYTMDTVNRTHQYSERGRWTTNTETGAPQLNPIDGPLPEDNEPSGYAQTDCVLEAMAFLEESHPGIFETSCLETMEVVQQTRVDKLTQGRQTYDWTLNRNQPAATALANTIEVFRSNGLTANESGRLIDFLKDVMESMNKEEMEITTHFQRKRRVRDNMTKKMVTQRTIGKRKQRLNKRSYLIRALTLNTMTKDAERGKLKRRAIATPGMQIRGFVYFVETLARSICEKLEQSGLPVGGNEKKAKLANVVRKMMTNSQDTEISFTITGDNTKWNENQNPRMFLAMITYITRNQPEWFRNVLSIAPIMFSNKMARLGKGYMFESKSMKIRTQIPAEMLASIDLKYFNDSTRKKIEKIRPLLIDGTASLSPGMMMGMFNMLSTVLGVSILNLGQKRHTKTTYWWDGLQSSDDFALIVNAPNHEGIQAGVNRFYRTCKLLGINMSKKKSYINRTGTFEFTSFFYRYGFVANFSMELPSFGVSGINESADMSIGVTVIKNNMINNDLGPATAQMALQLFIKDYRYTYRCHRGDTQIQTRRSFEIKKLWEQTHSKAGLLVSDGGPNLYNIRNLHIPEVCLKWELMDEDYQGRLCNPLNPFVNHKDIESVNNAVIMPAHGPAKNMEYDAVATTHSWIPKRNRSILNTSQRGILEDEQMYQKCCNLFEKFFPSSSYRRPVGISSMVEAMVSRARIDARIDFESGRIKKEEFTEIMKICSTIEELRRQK
FluPol, sequence (P03430 whole entry, looked up): as above

As for `C[n+]1ccc(C(=O)NCc2ccccc2)cc1` [FAV00A, N-methyl-4-benzylcarbamidopyridinium iodide, reference compound], the half-maximal inhibitory concentration (IC50) in assay [1] stood at 40.7 mM. Besides, in assay [2], the “FOLD CHANGE IC50” value is 1 and the midpoint of inhibition, the IC50, lay at 46.3 mM. The “inhibition of FluPol activity by cellular extract” value at FluPol was “strong, concentration-dependent inhibition”.
Regarding `O=C(NCc1ccccc1O)c1ccncc1` [VR18-01, N-[(2-hydrophenyl)methyl]pyridine-4-carboxamide], the “FOLD CHANGE IC50” value in assay [2] amounted to 1.4. Also, in assay [2] (read-out: FLUPOL IC50), the half-inhibitory concentration (IC50) was found to be 34.2 mM.
In the case of `O=C(NCc1cccc(O)c1)c1ccncc1` [VR18-02, N-[(3-hydrophenyl)methyl]pyridine-4-carboxamide], the “FOLD CHANGE IC50” value in assay [2] worked out at 0.5. The IC50 in assay [2] (read-out: FLUPOL IC50) came to 94.8 mM.
Take `O=C(NCc1ccccc1)c1cc[nH]c(=O)c1` [VR18-04, N-benzyl-2-oxo-1,2-dihydropyridine-4-carboxamide]: in assay [2], the “FOLD CHANGE IC50” value was 1.3 and half-maximal inhibition (IC50) was put at 35.2 mM.
Consider `C[n+]1ccc(C(=O)NCc2ccccc2O)cc1` [VR16-01, 4-{[(2-hydroxyphenyl)methyl]carbamoyl}-1-methylpyridin-1-ium], for which the “FOLD CHANGE IC50” value in assay [2] is listed as 0.6. Also, the concentration for half-maximal inhibition (IC50) in assay [2] (read-out: FLUPOL IC50) is 78.2 mM.
Consider `C[n+]1ccc(C(=O)NCc2ccccc2)cc1` [enisamium, 4-(benzylcarbamoyl)-1-methylpyridinium], for which, in the assay with influenza virus, the EC90 is 0.157 to 0.439 mM.
As to `NC(=O)c1nc(F)cn([C@@H]2O[C@H](COP(=O)(O)OP(=O)(O)OP(=O)(O)O)[C@@H](O)[C@H]2O)c1=O` [T-705 triphosphate, 6-fluoro-3,4-dihydro-4-[5-O-(hydroxy{[hydroxy(phosphonooxy)phosphinyl]oxy}phosphinyl)-β-d-ribofuranosyl]-3-oxo-2-pyrazinecarboxamide, reference compound], the “IC50 SARS-CoV-2 nsp7/8/12 RNA synthesis activity” value in assay [1] (in vitro, 30 mins, VR17-04 value estimated from the dose-response curve) is recorded as “non-inhibitory”. For the same compound, the IC50 in assay [2] is 0.011 mM.
Consider `O=C(NCc1ccc(O)cc1)c1ccncc1` [VR18-03, N-[(4-hydrophenyl)methyl]pyridine-4-carboxamide], for which the “FOLD CHANGE IC50” value in assay [2] is 0.6. Also, the IC50 in assay [2] (read-out: FLUPOL IC50) was determined as 74 mM.

The values above are taken from article PMC7263517 (bioRxiv, 2020).
